From patent US5374623A, “Cysteine protease inhibitors effective for in vivo use” (Prototek, Inc., priority 1992, dated 1994)
One block for each molecule: values may come before it.

How the values were obtained:
[1] = system: 45Ca2+-labelled bones (calvaria) of neonatal mice; assay: Parathyroid hormone-stimulated 45Ca2+ release from cultured mouse calvaria; assay type: cell-based; conditions: for inhibition of the rate of 45Ca2+-release: 1 μm inhibitor; for inhibition of the rate of 45Ca2+-release / additional inhibition of the rate of 45Ca2+-release: 24 hour period, PTH-stimulated; for additional inhibition of the rate of 45Ca2+-release: 100 μm inhibitor
Protocol: (§1) Treatment of Osteo Arthritis with Mu-Phe-HPhe-O-Ph. ^45 Ca^2+ -labelled bones (calvaria) of neonatal mice were maintained in culture. The effect of the test compound on the rate of parathyroid hormone-stimulated ^45 Ca^2+ release was measured over a 24 hour period. An inhibitor of bone resorption (at maximal concentrations) would be expected to inhibit this rate by approximately 70%. The nature of the residual, uninhibitable ^45 Ca^2+ -release is not known but could represent chemical exchange of ^45 Ca^2+ with the medium. Mu-Phe-HPhe-O-Ph was dissolved in dimethylsulphoxide which was present in the incubation at concentrations <0.1%.
as §1, with “Mu-Leu-HPhe-O-Ph.” for “Mu-Phe-HPhe-O-Ph.”, “Mu-Leu-HPhe-O-Ph” for “Mu-Phe-HPhe-O-Ph”
as §1, with “Mu-Tyr(OMe)-HPhe-O-Ph.” for “Mu-Phe-HPhe-O-Ph.”, “Mu-Tyr(OMe)-HPhe-O-Ph” for “Mu-Phe-HPhe-O-Ph”
as §1, with “Z-Phe-Ala-O-Ph.” for “Mu-Phe-HPhe-O-Ph.”, “Z-Phe-Ala-O-Ph” for “Mu-Phe-HPhe-O-Ph”
as §1, with “Mu-Tyr(OMe)-HPhe-O-Ph.” for “Mu-Phe-HPhe-O-Ph.”, “labelled” for “-labelled”, “Mu-Tyr(OMe)-HPhe-O-Ph” for “Mu-Phe-HPhe-O-Ph”

[2] = molecular target: Soluble extracts of P. falciparum (cysteine proteinase); assay: Proteolytic activity of P. falciparum soluble extracts, substrate Z-Phe-Arg-AFC; assay type: biochemical; conditions: read-out: IC50, proteolytic activity of P. falciparum extract
Protocol: Soluble extracts of P. falciparum and P. vinckei were prepared and proteolytic activity was assayed with fluorogenic peptide substrate Z-Phe-Arg-AFC. […] The concentrations at which activity was inhibited by 50% (IC50) was calculated.
Soluble extracts of P. falciparum and P. vinckei were prepared and proteolytic activity was assayed with fluorogenic peptide substrate Z-Phe-Arg-AFC. […] The concentration at which activity was inhibited by 50%. (IC50) was calculated.
Soluble extracts of P. falciparum and P. vinckei were prepared and proteolytic activity was assayed with fluorogenic peptide substrate Z-Phe-Arg-AFC. […] The concentration at which activity was inhibited by 50% (IC50) was calculated.
The concentration at which activity was inhibited by 50% (IC50) was calculated.

[3] = system: Soluble extracts of P. vinckei; assay: Proteolytic activity of P. vinckei soluble extracts, substrate Z-Phe-Arg-AFC; assay type: biochemical; conditions: read-out: IC50, proteolytic activity of P. vinckei extract
Protocol: (§2) Treatment of Malaria with Mu-Phe-HPhe-O-Ph. Soluble extracts of P. falciparum and P. vinckei were prepared and proteolytic activity was assayed with fluorogenic peptide substrate Z-Phe-Arg-AFC. The activity of control samples was compared with activities in the presence of multiple concentrations of Mu-Phe-HPhe-O-Ph. The concentrations at which activity was inhibited by 50% (IC50) was calculated.
as §2, with “with Mu-Leu-HPhe-O-Ph.” for “with Mu-Phe-HPhe-O-Ph.”, “of Mu-Leu-HPhe-O-Phe.” for “of Mu-Phe-HPhe-O-Ph.”, “The concentration” for “The concentrations”, “by 50%.” for “by 50%”
as §2, with “with Mu-Phe-Arg(NO2)-O-Ph.” for “with Mu-Phe-HPhe-O-Ph.”, “of Mu-Phe-Arg(NO2)-O-Ph.” for “of Mu-Phe-HPhe-O-Ph.”, “The concentration” for “The concentrations”
as §2, with “with Mu-Tyr(OCH3)2 -HPhe-O-Ph.” for “with Mu-Phe-HPhe-O-Ph.”, “samples as” for “samples was”, “of Mu-Tyr(OCH3)2 -HPhe-O-Ph.” for “of Mu-Phe-HPhe-O-Ph.”, “The concentration” for “The concentrations”

[4] = molecular target: T1, Cathepsin B purified from human liver (Homo sapiens, UniProt P07858); assay: Cathepsin B inhibition, potency relative to Z-Phe-Ala-CH2 F; assay type: biochemical; conditions: substrate Z-Leu-Arg-Arg-AFC, pH 6.2, inhibitor added 2 min before substrate
T1 construct: Cathepsin B. purified from human liver; purchased Enzyme Systems Products (Dublin, Calif.); host or cells: human liver (tissue-purified)
Protocol: Cathepsin B. purified from human liver, was obtained from Enzyme Systems Products (Dublin, Calif.). The activity of the enzyme used in this Example was 50 mU per ml at 30° C. in 50 mm sodium phosphate buffer, pH 6.2, 5 mm DTT, 2 mm EDTA, with Z-Leu-Arg-Arg-7-amino-4-trifluoromethyl courmarin (Z-Leu-Arg-Arg-AFC) as substrate.
Cathepsin B assays were done under the following conditions: Five μl of enzyme stock solution was preincubated with 435 μl of phosphate buffer for 30 minutes to activate the enzyme. Nine μl of 20 mm stock substrate solution (in dimethylformamide) were added and mixed with the activated enzyme. Activity was followed by the release of free AFC as monitored by a Perkin-Elmer LS-5B spectrofluorometer (excitation=400 nm, emission=505 nm).
The inhibitors described herein were prepared in 20 mm stock solutions in DMF. Five μl aliquots of each inhibitor were added to the enzyme 2 min before the substrate was added to the mix. Potency was determined relative to the activity of a standard cathepsin B inhibitor, Z-Phe-Ala-CH2 F (relative potency of 1.0).

[5] = system: adjuvant-induced arthritis; assay: Adjuvant-induced arthritis in rats, compound in ground diet (Example 15); assay type: in vivo; conditions: day 0 to day 32
Protocol: Treatment of Rheumatoid Arthritis with Mu-Tyr(OMe)-HPhe-O-Ph. Rats were injected with adjuvant on day 0 and were treated with Mu-Tyr(OMe)-HPhe-O-Ph in ground diet from the time of adjuvant injection until sacrifice at day 32. Over the course of the disease, animals were evaluated in terms of a mean clinical score, a derived series of clinically observed parameters normalized to facilitate graphical presentation. Mean paw volumes were also measured using normalized units throughout the course of the disease. At the end of the study, the animal groups were sacrificed and evaluated by X-ray analysis.

bone resorption = assay: In vivo bone resorption by urinary 14C-tetracycline excretion in rats
Protocol: Treatment of Osteo Arthritis with Mu-Phe-HPhe-O-Ph. The skeletons of young growing rats were radioactively labelled by injections with ^14 C-tetracycline over a 10 day period. The amount of bone resorption was then determined each day as the amount of radioactivity excreted in the urine. After 10 days of control excretion, test compounds were administered for three days subcutaneously and their effects on the daily excretion of tetracycline were determined. Tested compounds were dissolved in DMSO/PEG at a concentration of 25 mg/ml and were injected once per day subcutaneously in a volume of 2 ml/kg. Treatment of Osteo Arthritis with Mu-Leu-HPhe-O-Ph. The skeletons of young growing rats were radioactively labelled by injections with ^14 C-tetracycline over a 10 day period. The amount of bone resorption was then determined each day as the amount of radioactivity excreted in the urine. After 10 days of control excretion, test compounds were administered for three days subcutaneously and their effects on the daily excretion of tetracycline were determined. Tested compounds were dissolved in DMSO/PEG at a concentration of 25 mg/ml and were injected once per day subcutaneously in a volume of 2 ml/kg.

Molecule: CC(NC(=O)C(Cc1ccccc1)NC(=O)OCc1ccccc1)C(=O)COc1ccccc1 (stereo not drawn) [Z-Phe-Ala-O-Ph]
inhibition of the rate of 45Ca2+-release [1]: 50% | additional inhibition of the rate of 45Ca2+-release [1]: 20%

Molecule: NC(=NCCCC(NC(=O)C(Cc1ccccc1)NC(=O)N1CCOCC1)C(=O)COc1ccccc1)N[N+](=O)[O-] (stereo not shown) [Mu-Phe-Arg(NO2)-O-Ph]
IC50 [2]: 0.0024 µM | IC50 [3]: 0.11 µM

Molecule: CC(C)C[C@H](NC(=O)N1CCOCC1)C(=O)N[C@@H](CCc1ccccc1)C(=O)COc1ccccc1 [Mu-Leu-HPhe-O-Ph]
IC50 [2]: 0.00042 µM | IC50 [3]: 0.015 µM | inhibition of bone resorption in vivo as measured by tetracycline excretion (bone resorption; subcutaneous once per day for three days, 25 mg/ml in DMSO/PEG, 2 ml/kg): nearly as great as that of a maximal dose of calcitonin | time of maximum effect after dosing commenced (bone resorption; subcutaneous once per day, 25 mg/ml, 2 ml/kg): 24 h | findings at the sites of injection at end of experiment (bone resorption; subcutaneous, DMSO/PEG, three days, histology: inflammation of subcutaneous fat, tissue necrosis): lesions were visible at the sites of injection | inhibition of the rate of 45Ca2+-release [1]: 50% | additional inhibition of the rate of 45Ca2+-release [1]: 20%

Second part, led by results:

relative potency of cathepsin B inhibition (Z-Phe-Ala-CH2 F = 1.0) [4]: 1.0
Molecule: C[C@H](NC(=O)[C@H](Cc1ccccc1)NC(=O)OCc1ccccc1)C(=O)CF [Z-Phe-Ala-CH2 F, reference compound]

relative potency of cathepsin B inhibition (Z-Phe-Ala-CH2 F = 1.0) [4]: five
Molecule: t-Butyl carbamyl-L-arginyl-(2-Carboxymethyl) phenoxymethyl ketone [Example 3]

IC50 ([1]; initial phase of inhibition, read-out: IC50 for inhibition of resorption in mouse calvaria): ~0.04 µM
Molecule: COc1ccc(C[C@H](NC(=O)N2CCOCC2)C(=O)N[C@@H](CCc2ccccc2)C(=O)COc2ccccc2)cc1 [Mu-Tyr(OMe)-HPhe-O-Ph]
inhibition of the rate of 45Ca2+-release [1]: 50% | additional inhibition of the rate of 45Ca2+-release [1]: 20% | mean clinical scores vs untreated animals [5]: significantly lower | mean paw volumes vs untreated animals [5]: significantly reduced

relative potency of cathepsin B inhibition (Z-Phe-Ala-CH2 F = 1.0) [4]: 0.2
Molecule: COC(=O)c1ccccc1OCC(=O)C(C)(C)NC(=O)C(Cc1ccccc1)NC(=O)N1CCOCC1 (stereo not shown) [Example 9, Morpholine carbonyl phenylalanyl 2-aminoisobutyric methyl phenoxy ketone]
